Experiments:
surinam grass = test: Test B pre/postemergence surinam grass; type: in vivo, Brachiaria decumbens
Summary of the method: (§1)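 Response is a visual 0-to-10 score relative to untreated plants, where 0 means no effect and 10 means complete control, taken twelve to sixteen days after application. Treatments went onto soil at planting and onto foliage of 1- to 4-leaf plants, using a surfactant-containing non-phytotoxic solvent.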

cocklebur = test: Test B pre/postemergence cocklebur; type: in vivo, Xanthium strumarium
Summary of the method: as §1

corn = test: Test B pre/postemergence corn; type: in vivo, Zea mays
Summary of the method: as §1

crabgrass = test: Test B pre/postemergence crabgrass; type: in vivo, Digitaria sanguinalis
Summary of the method: as §1

giant foxtail = test: Test B pre/postemergence giant foxtail; type: in vivo, Setaria faberii
Summary of the method: as §1

morningglory = test: Test B pre/postemergence morningglory; type: in vivo, Ipomoea hederacea
Summary of the method: as §1

pigweed = test: Test B pre/postemergence pigweed; type: in vivo, Amaranthus retroflexus
Summary of the method: as §1

rape = test: Test B pre/postemergence rape; type: in vivo, Brassica napus
Summary of the method: as §1

soybean = test: Test B pre/postemergence soybean; type: in vivo, Glycine max
Summary of the method: as §1

sugar beet = test: Test B pre/postemergence sugar beet; type: in vivo, Beta vulgaris; settings: for Plant response rating, Sugarbeets: Rate 250 g/ha
Summary of the method: as §1

wild oat = test: Test B pre/postemergence wild oat; type: in vivo, Avena fatua; settings: for Plant response rating, Wild oats: Rate 250 g/ha
Summary of the method: as §1

purple nutsedge = test: Test B pre/postemergence purple nutsedge; type: in vivo, Cyperus rotundus
Summary of the method: as §1

rice = test: Test B flood test rice; type: in vivo, Oryza sativa
Summary of the method: (§2)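 Read-out is a visual response score from 0 (no effect) to 10 (complete control), assigned by comparison with untreated controls. Treatment was applied at the 2-leaf stage, and plants stayed in the greenhouse for twelve to sixteen days before scoring.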

smallflower flatsedge = test: Test B flood test smallflower flatsedge; type: in vivo, Cyperus difformis
Summary of the method: as §2

duck salad = test: Test B flood test duck salad; type: in vivo, Heteranthera limosa
Summary of the method: as §2

bamyardgrass = test: Test B flood test barnyardgrass; type: in vivo, Echinochloa crus-galli
Summary of the method: as §2

[1] = Postemergence, Rate 62 g/ha, scale 0 to 10, 0 is no effect, 10 is complete control
[2] = Postemergence, Rate 250 g/ha, scale 0 to 10, 0 no effect, 10 complete control
[3] = Preemergence, Rate 62 g/ha, scale 0 to 10 (0 no effect, 10 complete control)
[4] = Preemergence, Rate 125 g/ha, scale 0 to 10 (0 no effect, 10 complete control)
[5] = Preemergence, Rate 250 g/ha, scale of 0 to 10 where 0 is no effect and 10 is complete control
[6] = Preemergence, Rate 500 g/ha, scale 0 to 10 (0 no effect, 10 complete control)
[7] = Postemergence, Rate 125 g/ha, scale of 0 to 10 where 0 is no effect and 10 is complete control
[8] = Rate 62 g/ha, Postemergence, scale of 0 to 10 where 0 is no effect and 10 is complete control
[9] = Rate 500 g/ha, Postemergence, scale 0 to 10, 0 no effect, 10 complete control
[10] = Rate 250 g/ha, Postemergence, scale 0 to 10, 0 is no effect, 10 is complete control
[11] = Preemergence, Rate 125 g/ha, 0 is no effect, 10 is complete control
[12] = Preemergence, scale of 0 to 10 where 0 is no effect and 10 is complete control
[13] = Postemergence, scale 0 to 10, 0 is no effect, 10 is complete control
[14] = Postemergence (flood test species), Rate 125 g/ha, scale of 0 to 10 where 0 is no effect and 10 is complete control
[15] = Rate 62 g/ha, Postemergence section, flood test species, scale of 0 to 10 where 0 is no effect and 10 is complete control
[16] = Rate 250 g/ha, Postemergence (flood test), scale 0 to 10, 0 is no effect, 10 is complete control
[17] = Rate 500 g/ha, listed under Postemergence (flood test species), scale 0 to 10, 0 no effect, 10 complete control
[18] = flood test, listed under Postemergence, Rate 250 g/ha, scale 0 to 10, 0 no effect, 10 complete control

## CC(C)N(C(=O)n1oc(=O)n(Cc2ccccc2)c1=O)c1ccc(Cl)cc1 [Compound 106]
Surinam grass; [1]
  B. signalgrass plant response rating: 0
Surinam grass; [2]
  B. signalgrass plant response rating: 0
Surinam grass; [3]
  B. signalgrass plant response rating: 0
Surinam grass; [4]
  Plant response rating, B. signalgrass: 0
Surinam grass; [5]
  Plant response rating, B. signalgrass: 0
Surinam grass; [6]
  B. signalgrass plant response rating: 2
Surinam grass; Rate 125 g/ha, Postemergence, scale 0 to 10, 0 no effect, 10 complete control
  B. signalgrass plant response rating: 0
Surinam grass; Rate 500 g/ha, Postemergence, scale of 0 to 10 where 0 is no effect and 10 is complete control
  B. signalgrass plant response rating: 0
cocklebur; [7]
  Cocklebur plant response rating: 2
cocklebur; [2]
  Cocklebur plant response rating: 2
cocklebur; [3]
  Cocklebur plant response rating: 0
cocklebur; [4]
  Plant response rating, Cocklebur: 0
cocklebur; [5]
  Plant response rating, Cocklebur: 0
cocklebur; [6]
  Cocklebur plant response rating: 0
cocklebur; [8]
  Cocklebur plant response rating: 0
cocklebur; [9]
  Cocklebur plant response rating: 4
corn; [7]
  Corn plant response rating: 0
corn; [2]
  Corn plant response rating: 0
corn; [3]
  Corn plant response rating: 0
corn; [4]
  Plant response rating, Corn: 0
corn; [5]
  Plant response rating, Corn: 0
corn; [6]
  Corn plant response rating: 0
corn; [8]
  Corn plant response rating: 0
corn; [9]
  Corn plant response rating: 0
crabgrass; [7]
  Crabgrass plant response rating: 0
crabgrass; [2]
  Crabgrass plant response rating: 3
crabgrass; [3]
  Crabgrass plant response rating: 0
crabgrass; [4]
  Plant response rating, Crabgrass: 0
crabgrass; [5]
  Plant response rating, Crabgrass: 8
crabgrass; [6]
  Crabgrass plant response rating: 8
crabgrass; [8]
  Crabgrass plant response rating: 0
crabgrass; [9]
  Crabgrass plant response rating: 6
Giant foxtail; [7]
  Giant foxtail plant response rating: 2
Giant foxtail; [2]
  Giant foxtail plant response rating: 3
Giant foxtail; [3]
  Giant foxtail plant response rating: 2
Giant foxtail; [4]
  Plant response rating, Giant foxtail: 5
Giant foxtail; [5]
  Plant response rating, Giant foxtail: 10
Giant foxtail; [6]
  Giant foxtail plant response rating: 10
Giant foxtail; [8]
  Giant foxtail plant response rating: 0
Giant foxtail; [9]
  Giant foxtail plant response rating: 3
morningglory; [7]
  Morningglory plant response rating: 7
morningglory; [2]
  Morningglory plant response rating: 8
morningglory; [3]
  Morningglory plant response rating: 0
morningglory; [4]
  Plant response rating, Morningglory: 0
morningglory; [5]
  Plant response rating, Morningglory: 0
morningglory; [6]
  Morningglory plant response rating: 0
morningglory; [8]
  Morningglory plant response rating: 6
morningglory; [9]
  Morningglory plant response rating: 10
pigweed; [7]
  Redroot pigweed plant response rating: 0
pigweed; [3]
  Redroot pigweed plant response rating: 0
pigweed; [4]
  Plant response rating, Redroot pigweed: 0
pigweed; [5]
  Plant response rating, Redroot pigweed: 0
pigweed; [6]
  Redroot pigweed plant response rating: 4
pigweed; [8]
  Redroot pigweed plant response rating: 0
pigweed; [10]
  Plant response rating, Redroot pigweed: 0
pigweed; [9]
  Redroot pigweed plant response rating: 6
rape; [7]
  Rape plant response rating: 0
rape; [2]
  Rape plant response rating: 0
rape; [3]
  Rape plant response rating: 0
rape; [4]
  Plant response rating, Rape: 0
rape; [5]
  Plant response rating, Rape: 0
rape; [6]
  Rape plant response rating: 2
rape; [8]
  Rape plant response rating: 0
rape; [9]
  Rape plant response rating: 0
soybean; [7]
  Soybean plant response rating: 0
soybean; [3]
  Soybean plant response rating: 0
soybean; [4]
  Plant response rating, Soybean: 0
soybean; [5]
  Plant response rating, Soybean: 0
soybean; [6]
  Soybean plant response rating: 0
soybean; [8]
  Soybean plant response rating: 0
soybean; [10]
  Plant response rating, Soybean: 1
soybean; [9]
  Soybean plant response rating: 1
Sugar beet; [7]
  Sugarbeets plant response rating: 0
Sugar beet; [3]
  Sugarbeets plant response rating: 0
Sugar beet; [11]
  Sugarbeets plant response rating (0 to 10 scale): 0
Sugar beet; [12]
  Plant response rating, Sugarbeets: 0
Sugar beet; [6]
  Sugarbeets plant response rating: 2
Sugar beet; [8]
  Sugarbeets plant response rating: 0
Sugar beet; [13]
  Plant response rating, Sugarbeets: 0
Sugar beet; [9]
  Sugarbeets plant response rating: 0
Wild oat; [7]
  Wild oats plant response rating: 0
Wild oat; [3]
  Wild oats plant response rating: 0
Wild oat; [11]
  Wild oats plant response rating (0 to 10 scale): 0
Wild oat; [12]
  Plant response rating, Wild oats: 0
Wild oat; [6]
  Wild oats plant response rating: 0
Wild oat; [8]
  Wild oats plant response rating: 0
Wild oat; [13]
  Plant response rating, Wild oats: 0
Wild oat; [9]
  Wild oats plant response rating: 0
Purple nutsedge; [7]
  Nutsedge plant response rating: 0
Purple nutsedge; [2]
  Nutsedge plant response rating: 0
Purple nutsedge; [3]
  Nutsedge plant response rating: 0
Purple nutsedge; [4]
  Plant response rating, Nutsedge: 0
Purple nutsedge; [5]
  Plant response rating, Nutsedge: 0
Purple nutsedge; [6]
  Nutsedge plant response rating: 0
Purple nutsedge; [8]
  Nutsedge plant response rating: 0
Purple nutsedge; [9]
  Nutsedge plant response rating: 0
rice; [14]
  Rice plant response rating: 0
rice; [15]
  Rice plant response rating: 0
rice; [16]
  Plant response rating, Rice: 0
rice; [17]
  Rice plant response rating: 0
Smallflower flatsedge; [14]
  S. Flatsedge plant response rating: 0
Smallflower flatsedge; [15]
  S. Flatsedge plant response rating: 0
Smallflower flatsedge; [16]
  Plant response rating, S. Flatsedge: 0
Smallflower flatsedge; [17]
  S. Flatsedge plant response rating: 0
Duck salad; [14]
  Ducksalad plant response rating: 0
Duck salad; [15]
  Ducksalad plant response rating: 0
Duck salad; [17]
  Ducksalad plant response rating: 0
Duck salad; [18]
  Ducksalad plant response rating: 0
bamyardgrass; [1]
  Barnyardgrass plant response rating: 0
bamyardgrass; Rate 125 g/ha, Postemergence section (flood test species), scale 0 to 10, 0 no effect, 10 complete control
  Barnyardgrass plant response rating: 0
bamyardgrass; [17]
  Barnyardgrass plant response rating: 0
bamyardgrass; [18]
  Barnyardgrass plant response rating: 0
